# Measured values reported in ChEMBL document CHEMBL1201862, “PubChem BioAssay data set” (2004).
# The source made the active and inactive calls.
# Key:
# [1] = tested on: HeLa; experiment: Cytotoxicity counterscreen assay for transcriptional activators of heat shock protein 70 (Hsp70). [Related pubchem assays: 1203, 1252 ]; assay type: functional; settings: Homo sapiens;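 also: cells exposed to compound for 16 hours before readout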
# [2] = target: T1, Microphthalmia-associated transcription factor (Homo sapiens, UniProt O75030); experiment: TRPM1 promoter luciferase signal decrease, dose response, MITF inhibitor project, cell-based, SK-MEL-5, cherry-picked, set 3 (AID 493073); assay type: functional
# T1 sequence (O75030 whole entry): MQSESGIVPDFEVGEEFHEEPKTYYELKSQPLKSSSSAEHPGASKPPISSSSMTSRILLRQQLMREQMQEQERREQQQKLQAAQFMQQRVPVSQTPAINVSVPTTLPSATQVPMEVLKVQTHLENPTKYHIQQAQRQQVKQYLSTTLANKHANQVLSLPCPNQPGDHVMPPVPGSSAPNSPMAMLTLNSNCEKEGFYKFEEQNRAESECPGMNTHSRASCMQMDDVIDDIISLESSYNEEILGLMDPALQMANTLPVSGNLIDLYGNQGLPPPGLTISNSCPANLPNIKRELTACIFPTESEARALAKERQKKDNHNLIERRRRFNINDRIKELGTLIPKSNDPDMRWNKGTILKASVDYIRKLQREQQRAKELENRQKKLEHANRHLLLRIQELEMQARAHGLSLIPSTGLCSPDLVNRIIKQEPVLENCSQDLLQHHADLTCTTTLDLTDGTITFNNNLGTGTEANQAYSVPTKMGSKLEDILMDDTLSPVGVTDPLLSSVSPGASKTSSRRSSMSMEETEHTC
# [3] = tested on: A-375; experiment: MITF: Counter assay: A375 proliferation Measured in Cell-Based System Using Plate Reader - 2084-03_Inhibitor_Dose_DryPowder_Activity. [Related pubchem assays (depositor defined):AID488944]; assay type: functional; settings: Homo sapiens
# [4] = tested on: A-375; experiment: A375 melanoma cell viability reduction, dose response, counter-screen for MITF modulator project, cherry-pick samples, set 2 (AID 540335); assay type: functional, cell-based; settings: Homo sapiens
# [5] = Shn3 3'UTR reporter inhibitors, dose response, cell-based, Clone20 osteoblasts, firefly luciferase, cherry-picked (AID 624132); assay type: functional;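 also: firefly luciferase luminescence from reporter carrying the Shn3 3'UTR in osteoblasts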
# [6] = HepG2 cell cytotoxicity, dose response, cytotoxicity control for Shn3 inhibitor project, CellTiter-Glo, cherry-picked (AID 624134); assay type: functional, cell-based
# [7] = control 3'UTR Renilla luciferase suppression, dose response, counter-screen for Shn3 inhibitor project, cell-based, Clone20-Shn3RL, cherry-picked (AID 624133); assay type: functional
# [8] = target: Paired box protein Pax-8 (Homo sapiens, UniProt Q06710); experiment: inhibitors of PAX8-driven TPO luciferase reporter, dose response, RMG-I cells, cherry-pick (AID 687027); assay type: functional, cell-based;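 also: luciferase reporter driven by Pax8 target thyroperoxidase promoter measured by SteadyGlo luminescence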
# Paired box protein Pax-8, sequence (Q06710 whole entry): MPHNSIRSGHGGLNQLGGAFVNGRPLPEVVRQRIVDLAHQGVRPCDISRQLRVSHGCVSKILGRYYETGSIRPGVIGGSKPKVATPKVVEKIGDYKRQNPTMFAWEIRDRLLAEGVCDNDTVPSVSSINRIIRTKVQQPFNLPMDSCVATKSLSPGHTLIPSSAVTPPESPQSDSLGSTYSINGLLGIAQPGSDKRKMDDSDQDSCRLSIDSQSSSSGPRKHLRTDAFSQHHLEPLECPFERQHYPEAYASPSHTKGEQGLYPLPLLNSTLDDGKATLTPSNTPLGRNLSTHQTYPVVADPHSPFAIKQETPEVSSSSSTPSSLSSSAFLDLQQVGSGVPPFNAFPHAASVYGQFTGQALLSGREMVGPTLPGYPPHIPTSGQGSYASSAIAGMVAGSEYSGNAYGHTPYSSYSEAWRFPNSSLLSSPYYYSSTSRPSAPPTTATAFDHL
# [9] = inhibitors of CMV-promoter luciferase reporter, dose response, counter-screen for Pax8 inhibitor project, cell-based, HEK293, luminescence, dry powder (AID 743020); assay type: functional
# [10] = cytotoxicity in HEK-293T cells, dose response, cytotoxicity control for TCR NF-kB inhibitor project, luminescence, T-cell screen hits (AID 489026); assay type: functional, cell-based;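 also: cells exposed to compound about 14 hours before the viability readout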
# [11] = target: Phospholipase A2 (Homo sapiens, UniProt P04054); experiment: PLA2 enzyme inhibitors, dose response, counter-screen for ATG4B inhibitor project, biochemical, set 2 (AID 588586); assay type: functional
# Phospholipase A2, sequence (P04054 whole entry): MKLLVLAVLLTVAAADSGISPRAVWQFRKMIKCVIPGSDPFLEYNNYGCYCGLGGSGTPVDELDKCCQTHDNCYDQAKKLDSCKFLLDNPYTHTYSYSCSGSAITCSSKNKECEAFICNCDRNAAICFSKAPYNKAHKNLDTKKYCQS
# [12] = target: T2, Cysteine protease ATG4B (Homo sapiens, UniProt Q9Y4P1); experiment: ATG4B protease inhibitors, dose response, biochemical, fluorescence, set 2 (AID 588584); assay type: functional
# T2 sequence (Q9Y4P1 whole entry): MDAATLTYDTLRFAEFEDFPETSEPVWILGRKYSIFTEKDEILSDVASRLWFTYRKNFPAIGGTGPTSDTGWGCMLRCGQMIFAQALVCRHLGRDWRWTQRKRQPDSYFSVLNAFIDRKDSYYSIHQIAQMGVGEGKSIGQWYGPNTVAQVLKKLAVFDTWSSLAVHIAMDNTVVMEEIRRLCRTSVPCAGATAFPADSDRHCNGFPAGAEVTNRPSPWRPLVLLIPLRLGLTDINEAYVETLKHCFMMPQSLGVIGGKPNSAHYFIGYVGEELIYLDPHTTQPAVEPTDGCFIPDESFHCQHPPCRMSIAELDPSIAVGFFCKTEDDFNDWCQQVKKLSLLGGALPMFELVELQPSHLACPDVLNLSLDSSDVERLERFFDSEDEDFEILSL
# [13] = Luminescence Cell-Based/Microorganism Confirmation at Dose of Inhibitors of Trypanosoma cruzi Infection. [Related pubchem assays: 1885, 1968 ]; assay type: functional
# [14] = Luminescence Cell-Based Secondary HTS screen to identify cytotoxic compounds of NIH3T3 cells. [Related pubchem assays: 1885, 1968 ]; assay type: functional
# [15] = inhibitors of Trypanosoma cruzi host-cell infection, confirmation, beta-gal luminescence, NIH3T3 host cells (AID 2630); assay type: functional, cell-based; settings: Mus musculus
# [16] = target: G-protein coupled receptor 55 (Homo sapiens, UniProt Q9Y2T6); experiment: GPR55 antagonists, SAR follow-up, counter-screen for GPR35 antagonist project, imaging, image-based (AID 2397); assay type: functional
# G-protein coupled receptor 55, sequence (Q9Y2T6 whole entry): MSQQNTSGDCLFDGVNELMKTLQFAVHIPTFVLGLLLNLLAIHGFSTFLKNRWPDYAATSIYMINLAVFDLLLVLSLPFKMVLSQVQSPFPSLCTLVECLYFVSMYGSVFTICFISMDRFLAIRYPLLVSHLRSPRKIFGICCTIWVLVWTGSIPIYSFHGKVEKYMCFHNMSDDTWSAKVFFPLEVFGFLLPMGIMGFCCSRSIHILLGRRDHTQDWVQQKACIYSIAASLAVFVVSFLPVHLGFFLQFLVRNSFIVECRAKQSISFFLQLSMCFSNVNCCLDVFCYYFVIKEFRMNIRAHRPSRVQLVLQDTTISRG
# [17] = target: Cytochrome P450 2C19 (Homo sapiens, UniProt P33261); experiment: Cytochrome panel assay with activity outcomes. Panel member name: p450-cyp2c19 Compounds with AC50 equal or less than 10 uM are considered active; assay type: functional
# Cytochrome P450 2C19, sequence (P33261 whole entry): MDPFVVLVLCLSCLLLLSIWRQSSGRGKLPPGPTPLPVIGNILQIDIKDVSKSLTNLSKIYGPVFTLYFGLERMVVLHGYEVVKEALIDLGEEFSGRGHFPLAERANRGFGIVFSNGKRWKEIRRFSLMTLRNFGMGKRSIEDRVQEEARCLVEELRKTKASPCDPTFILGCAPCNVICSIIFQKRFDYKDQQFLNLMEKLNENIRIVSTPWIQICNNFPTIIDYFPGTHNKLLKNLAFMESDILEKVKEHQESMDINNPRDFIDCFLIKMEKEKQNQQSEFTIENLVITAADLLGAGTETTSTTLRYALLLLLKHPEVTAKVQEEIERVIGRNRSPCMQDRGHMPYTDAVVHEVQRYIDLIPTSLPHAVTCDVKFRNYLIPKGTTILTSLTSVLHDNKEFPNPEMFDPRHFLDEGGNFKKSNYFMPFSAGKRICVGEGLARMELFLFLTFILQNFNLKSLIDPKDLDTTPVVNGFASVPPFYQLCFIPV
# [18] = target: Cytochrome P450 2D6 (Homo sapiens, UniProt P10635);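 also: CYP2D6 member of a cytochrome P450 panel assay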
# Cytochrome P450 2D6, sequence (P10635 whole entry): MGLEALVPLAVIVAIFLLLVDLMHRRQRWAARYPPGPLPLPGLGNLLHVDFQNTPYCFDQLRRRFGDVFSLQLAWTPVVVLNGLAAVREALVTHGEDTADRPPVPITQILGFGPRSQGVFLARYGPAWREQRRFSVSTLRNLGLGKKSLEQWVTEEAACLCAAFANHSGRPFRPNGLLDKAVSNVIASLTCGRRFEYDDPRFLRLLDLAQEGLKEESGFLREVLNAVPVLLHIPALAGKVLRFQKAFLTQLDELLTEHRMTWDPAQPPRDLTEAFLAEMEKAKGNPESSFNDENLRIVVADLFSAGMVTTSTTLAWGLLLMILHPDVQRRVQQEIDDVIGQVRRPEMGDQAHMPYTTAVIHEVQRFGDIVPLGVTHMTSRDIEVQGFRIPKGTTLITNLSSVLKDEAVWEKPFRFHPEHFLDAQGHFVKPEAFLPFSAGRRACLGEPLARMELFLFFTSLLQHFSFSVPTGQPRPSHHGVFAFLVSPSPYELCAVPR
# [19] = target: T3, Cytochrome P450 1A2 (Homo sapiens, UniProt P05177);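 also: PubChem cytochrome P450 panel assay, CYP1A2 panel member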
# T3 sequence (P05177 whole entry): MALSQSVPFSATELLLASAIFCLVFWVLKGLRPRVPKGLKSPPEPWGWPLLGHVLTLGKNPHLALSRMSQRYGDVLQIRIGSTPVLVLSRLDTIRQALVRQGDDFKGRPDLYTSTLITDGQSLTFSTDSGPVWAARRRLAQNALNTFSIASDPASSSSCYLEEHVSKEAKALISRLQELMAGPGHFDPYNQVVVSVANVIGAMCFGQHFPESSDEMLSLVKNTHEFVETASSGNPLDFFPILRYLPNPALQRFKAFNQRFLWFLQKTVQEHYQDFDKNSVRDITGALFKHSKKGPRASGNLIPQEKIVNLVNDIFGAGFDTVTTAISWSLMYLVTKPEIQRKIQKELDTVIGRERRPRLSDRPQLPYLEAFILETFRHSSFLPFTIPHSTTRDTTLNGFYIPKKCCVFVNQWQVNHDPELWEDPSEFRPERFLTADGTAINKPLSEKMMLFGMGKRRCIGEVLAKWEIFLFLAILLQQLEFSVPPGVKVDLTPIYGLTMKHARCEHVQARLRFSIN
# [20] = target: Cytochrome P450 3A4 (Homo sapiens, UniProt P08684);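 also: CYP3A4 tested as one member of a cytochrome P450 panel screen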
# Cytochrome P450 3A4, sequence (P08684 whole entry): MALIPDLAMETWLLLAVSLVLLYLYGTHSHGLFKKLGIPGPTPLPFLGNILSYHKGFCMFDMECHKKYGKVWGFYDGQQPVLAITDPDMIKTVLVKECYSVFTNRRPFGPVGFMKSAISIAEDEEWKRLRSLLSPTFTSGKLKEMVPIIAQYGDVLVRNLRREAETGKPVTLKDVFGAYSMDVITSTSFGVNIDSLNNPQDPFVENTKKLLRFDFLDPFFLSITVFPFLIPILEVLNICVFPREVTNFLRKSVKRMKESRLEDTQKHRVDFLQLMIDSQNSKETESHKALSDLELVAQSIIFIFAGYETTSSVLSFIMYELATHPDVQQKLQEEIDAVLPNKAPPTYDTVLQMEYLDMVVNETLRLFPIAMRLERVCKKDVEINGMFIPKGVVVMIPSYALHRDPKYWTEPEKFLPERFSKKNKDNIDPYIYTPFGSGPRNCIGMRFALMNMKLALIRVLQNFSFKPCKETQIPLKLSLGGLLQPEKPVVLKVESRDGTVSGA
# [21] = target: Cytochrome P450 2C9 (Homo sapiens, UniProt P11712)
# Cytochrome P450 2C9, sequence (P11712 whole entry): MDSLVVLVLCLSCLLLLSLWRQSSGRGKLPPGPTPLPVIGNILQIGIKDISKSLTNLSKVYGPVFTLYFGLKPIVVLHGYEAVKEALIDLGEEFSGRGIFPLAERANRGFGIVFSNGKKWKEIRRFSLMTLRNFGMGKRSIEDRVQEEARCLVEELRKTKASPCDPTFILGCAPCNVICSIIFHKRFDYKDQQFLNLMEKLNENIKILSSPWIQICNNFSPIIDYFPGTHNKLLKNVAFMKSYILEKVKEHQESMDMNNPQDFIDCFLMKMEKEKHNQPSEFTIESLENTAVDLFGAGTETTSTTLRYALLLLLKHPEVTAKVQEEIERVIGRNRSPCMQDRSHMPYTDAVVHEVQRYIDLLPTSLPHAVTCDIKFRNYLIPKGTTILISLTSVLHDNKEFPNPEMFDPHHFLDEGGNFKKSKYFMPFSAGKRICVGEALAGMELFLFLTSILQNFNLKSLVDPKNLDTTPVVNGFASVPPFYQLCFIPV
smiles,measurement,setting,value
CCC(=O)N1CCN(c2ccc(NC(=O)c3ccc([N+](=O)[O-])o3)cc2Cl)CC1,CC50,[1],4.57 µM (active)
same,AC50,[2],6.09 µM (active)
same,AC50,[3],> 35 µM (active)
same,AC50,[4],> 35 µM (active)
same,AC50,[5],850 nM (active)
same,AC50,[6],20.5 µM (active)
same,AC50,[7],5.2 µM (active)
same,AC50,[8],4.12 µM (active)
same,AC50,[9],2.21 µM (active)
Cc1noc(C)c1CSc1nc2ccccc2c(=O)n1-c1ccccc1,IC50,[10],> 80 µM (inactive)
same,IC50,[11],10.7 µM (active)
same,IC50,[12],19.2 µM (active)
CC(C)c1cccc(OCCCCN(C)C)c1,EC50,[13],2.18 µM (active)
same,EC50,[14],> 195 µM (not active)
same,EC50,[15],2.18 µM (active)
Cc1c(C(=O)Nc2ccc3c(c2)OCCO3)sc2ncnc(O)c12,IC50,[16],> 32 µM (inactive)
Cc1ncc(CO)c(/C=N/CCCCCC/N=C/c2c(CO)cnc(C)c2[O-])c1[O-].[Mg+2],AC50,[17],inactive
same,AC50,[18],inactive
same,AC50,[19],inactive
same,AC50,[20],inactive
same,AC50,[21],inactive
